Experimental data reported in the NIST ThermoML archive (doi:10.1021/je9006597).

Test: xn = mol fraction of the nth substance listed
Settings: 101 kPa, Liquid; for speed of sound: Pulse-echo method

COC(=O)c1ccccc1 [methyl benzoate] + CCCCCC
Settings	mass density, 303.15 K [kg/m3]	mass density, 308.15 K [kg/m3]	mass density, 313.15 K [kg/m3]	speed of sound, 303.15 K [m/s]	speed of sound, 308.15 K [m/s]	speed of sound, 313.15 K [m/s]	viscosity, 303.15 K [mPa·s]	viscosity, 308.15 K [mPa·s]	viscosity, 313.15 K [mPa·s]
x1 = 0.1027	692.7	689	685.1	1072	1052	1036	0.324	0.301	0.283
x1 = 0.2076	738	734.2	730.3	1100	1080	1064	0.384	0.358	0.335
x1 = 0.3084	781.4	777.6	773.7	1128	1108	1096	0.441	0.409	0.383
x1 = 0.4087	825.2	821.3	817.3	1160	1140	1128	0.527	0.487	0.454
x1 = 0.5114	869.6	865.6	861.7	1196	1180	1164	0.624	0.579	0.542
x1 = 0.6115	913.1	909.2	905.3	1232	1220	1200	0.751	0.688	0.635
x1 = 0.7092	955.5	951.5	947.3	1272	1256	1240	0.915	0.844	0.78
x1 = 0.8069	997.7	993.7	989.7	1312	1292	1280	1.104	1.016	0.935
x1 = 0.9024	1036.9	1033	1029.1	1344	1328	1316	1.37	1.238	1.135
x1 = 1	1078.3	1074.4	1070.3	1380	1364	1348	1.667	1.514	1.376
